Bounds are passed on as bounds.

The values below come from paper PMC10793205, “Differential transmetallation of complexes of the anti-cancer thiosemicarbazone, Dp4e4mT: effects on anti-proliferative efficacy, redox activity, oxy-myoglobin and oxy-hemoglobin oxidation” (Chemical Science, 2023).

One data set deals with SK-N-MC cells. The experiment in a line: MTT cellular proliferation assay, SK-N-MC neuroepithelioma cells. As to conditions: for Therapeutic index SK-N-MC: IC50 of MRC-5 cells/IC50 of SK-N-MC cells, 72 h/37 °C; for IC50: SK-N-MC, 37 °C, MTT, mean ± SD (3 experiments). Type of data set: cell-based, human. The procedure: The anti-proliferative activity of Dp4e4mT relative to its complexes with Fe(III), Co(III), Ni(II), Cu(II), Zn(II), Ga(III), and Pd(II) was examined over incubation periods of 24-, 48-, and 72 h/37 °C (Table 2). These studies were performed using human SK-N-MC neuroepithelioma and AsPC-1 pancreatic adenocarcinoma cells that we have previously examined to assay other ligands.[15,28,43] […]
All cell lines were procured from the American Type Culture Collection (ATCC; Manassas, VA). The SK-N-MC neuroepithelioma cell line and the mortal MRC-5 fibroblasts were cultured in minimum essential medium (Sigma-Aldrich), while the AsPC-1 cell line was cultured in Roswell Park Memorial Institute 1640 medium (Thermo Fisher Scientific, MA, USA). Both media were supplemented with 10% fetal calf serum, non-essential amino acids (1 mM), sodium pyruvate (1 mM), L-glutamine (2 mM), penicillin (100 U/mL), streptomycin (100 U/mL), and Fungizone (0.5 µg/mL). Cells were maintained at 37 °C in an incubator under a humidified atmosphere with 5% CO 2, following established protocols. 11 Cellular Proliferation Assay
Cellular proliferation was evaluated through the established 3-(4,5-dimethylthiazol-2-yl)-2,5-diphenyltetrazolium bromide (MTT) proliferation assay, validated by viable cell counts.12 […]
Ligands and complexes were dissolved in DMSO to make a stock solution of 10 mM, subsequently diluted in culture media. For cell culture experiments, the DMSO's maximum concentration remained below 0.5% (v/v), with no discernible impact on proliferation.12 MTT […]
Trypan blue staining.12 Analysis of the data was executed employing MARS Data Analysis Software (BMG LabTech; version 3.30). The concentration of agents necessary to inhibit cellular proliferation by 50% (IC 50) was then calculated. […]

Data set [1] can be described thus: Transmetallation kinetics with Cu(OAc)2 in DMSO (time-resolved UV-vis). Type of data set: physicochemical. The settings on record: for Observed pseudo first order rate constant kobs, Cu(OAc)2 (only or first step): 10-fold excess of Cu(OAc)2 in DMSO, 25 °C. The procedure: The capacity of the Fe(III), Ni(II), Co(III), Zn(II), Ga(III), and Pd(II) complexes of Dp4e4mT to transmetallate with Cu(II) and/or Fe(III) to result in redox active Cu(II) and Fe(III) complexes could be critical in understanding their anti-proliferative efficacy, redox activity, and ability to oxidize oxy-Mb and oxy-Hb. To examine this, LC-MS spectrometry was performed in DMSO after the addition of 1 equivalent of FeCl3 or Cu(OAc)2 and the solutions then incubated for 24 h/20 °C due to slow reaction kinetics. This solution was then diluted 1 : 1 in methanol and LC-MS performed using a mobile phase consisting of 90% MeOH, 9.9% water, and 0.1% formic acid (Fig. S2–S9 ^†). These investigations were supported by EPR studies in DMSO after the addition of 1 equivalent of FeCl3 or Cu(OAc)2 incubated under the same conditions (Fig. 3A–G). As a third method to investigate transmetallation, kinetic studies using time-resolved UV-vis spectroscopy were performed under pseudo-first order conditions with a 10-fold excess of FeCl3 or Cu(OAc)2 in DMSO (Fig. S11–S16 ^†). The pseudo-first order rate constants were calculated from the time-dependent UV-vis spectroscopy data (at all wavelengths) with Reactlab Kinetics[49] and collected in Table S2. ^† […]
Time-dependent UV-Vis absorption spectra were measured on an Agilent 8453 diode array UV−Vis spectrophotometer, equipped with a thermostatted (± 0.1 °C) multicell transport cooled by a Huber Ministat 230 recirculating cooling bath. Spectral analysis was carried out with Reactlab Kinetics. 10 […]
Table S2. Observed pseudo first order rate constants (k obs, s−1) for reactions of each Dp4e4mT complex with a 10-fold excess of Cu(OAc) 2 or FeCl 3 in DMSO or water (pH 7.4 or 5.0) at 25 °C. […]
[Co(Dp4e4mT)2]+ No reaction No reaction No reaction No reaction […]
a Reaction could not be deciphered by UV-Vis spectroscopy; bchlorido ligand hydrolysis

The target of the next data set is oxy-Hb (Homo sapiens, UniProt P68871+P69905). The data set can be described thus: Oxidation of purified oxy-Hb to met-Hb (UV-vis). It counts as biochemical. As to conditions: 10 μM agent, oxy-Hb 40 μM, 1–3 h/20 °C. The source says:
As such, it was important to examine the effect of the Dp4e4mT complexes on oxy-Hb and oxy-Mb oxidation (Fig. 6 and 7). Comparisons were made to three controls, namely DFO, Dp44mT, and DpC, as well as their Fe(III) complexes. […] In contrast, the Fe(III) complexes of Dp44mT and DpC were positive controls, as they induce oxidation of oxy-Mb.[28,39,42]
Fig. 7 (A and B) Investigation of the effects of Dp4e4mT and its Fe(III), Co(III), Ni(II), Cu(II), Zn(II), Ga(III), and Pd(II) complexes versus DFO, Dp44mT, DpC and their Fe(III) complexes (10 μM) on met-Hb generation (% zero time) after an incubation of 1–3 h/20 °C with purified oxy-Hb (40 μM). (C) Investigation of the effects of Dp4e4mT and its Fe(III), Co(III), Ni(II), Cu(II), Zn(II), Ga(III), or Pd(II) complexes relative to the positive controls DFO, Dp44mT, DpC, and their Fe(III) complexes (10 μM) on oxy-Hb oxidation in intact human erythrocytes after a 3 h/37 °C incubation. Results are mean ± SD (3 experiments).
Spectroscopic Examination of Met-Mb and Met-Hb Formation from Oxy-Mb and Oxy- […]
Oxy-Mb and oxy-Hb solutions were prepared following established protocols.8, 17 In brief, solutions of reduced Mb and Hb in PBS (pH 7.2) were prepared by adding 1.2 mL of Na2S2O4 (12 mM) to 38 mL of met-Mb and met-Hb solution (40 μM). 17 Subsequently, oxy-Mb and oxy-Hb were generated by gently passing 150 mL of oxygen (from an air-filled syringe) through the solution containing reduced Mb and Hb, effectively eliminating any residual Na2S2O4. Following this, the oxy-Mb and oxy-Hb solutions were passed through a PD-10 column prepacked with 8.3 mL of Sephadex G-25 and equilibrated with PBS (pH 7.2). 17 In experiments examining the activity of the agents, all complexes were dissolved in 1,2-propanediol, then diluted to 10 µM in PBS (pH 7.2). The experiments were conducted over incubations of 0 to 3 h with the agents. UV-Vis spectra covering the range of 300 to 700 nm were recorded at a temperature of 20°C using a Shimadzu UV−Vis spectrophotometer (UV-1800; Shimadzu, Kyoto, Japan). Concentrations of met-Mb and met-Hb, as well as reduced-Mb and reduced-Hb, were determined at 409 nm and 435 nm, respectively. Concentrations of oxy-Mb and oxy-Hb were determined at 544 nm and 582 nm, respectively. 17

oxy-Hb, sequence (P69905 2-142 limits assumed): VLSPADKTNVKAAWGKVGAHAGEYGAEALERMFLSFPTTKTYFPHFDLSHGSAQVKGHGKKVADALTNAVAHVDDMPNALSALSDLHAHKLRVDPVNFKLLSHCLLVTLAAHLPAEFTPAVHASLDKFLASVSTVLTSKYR
oxy-Hb, sequence (P68871 2-147 limits assumed): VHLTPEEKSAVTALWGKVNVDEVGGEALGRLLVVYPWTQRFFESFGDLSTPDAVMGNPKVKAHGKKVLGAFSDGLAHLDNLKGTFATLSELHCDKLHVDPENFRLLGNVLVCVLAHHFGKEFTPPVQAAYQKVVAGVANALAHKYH

For `CCN(C)C([S-])=NN=C(c1ccccn1)c1ccccn1.CCN(C)C([S-])=NN=C(c1ccccn1)c1ccccn1.[Co+3]` [[Co(Dp4e4mT)2]^+], in the data set with SK-N-MC cells, the “Therapeutic index SK-N-MC” value came to 4. In addition, the results for the half-maximal inhibitory concentration (IC50) in the data set on SK-N-MC cells (24 h), with SK-N-MC cells (48 h) and in the data set with SK-N-MC cells (72 h) were 5498 ± 4 nM, 1470 ± 61 nM and 818 ± 51 nM, respectively. For the same compound, in data set [1], the “Observed pseudo first order rate constant kobs, Cu(OAc)2 (only or first step)” value was “No reaction”. The “oxy-Hb oxidation, purified oxy-Hb (in words)” value (“oxy-Hb oxidation” below) is listed as “minimal impact” at oxy-Hb and “low levels of oxy-Hb oxidation” at oxy-Hb (listed as Dp4e4mT Co(III) complex).
With `CN(C)C(=S)NN=C(c1ccccn1)c1ccccn1` [Dp44mT, di-2-pyridylketone 4,4-dimethyl-3-thiosemicarbazone, reference compound], the half-inhibitory concentration (IC50) in the data set on SK-N-MC cells (Homo sapiens, 24 h) was over 25000 nM; in the data set on SK-N-MC cells (Homo sapiens, 48 h), 43 ± 6 nM; in the data set on SK-N-MC cells (Homo sapiens, 72 h) it was 6 ± 1 nM. Further, in the data set on SK-N-MC cells, the “Therapeutic index SK-N-MC” value stood at 152.
`CCN(C)C([S-])=NN=C(c1ccccn1)c1ccccn1.CCN(C)C([S-])=NN=C(c1ccccn1)c1ccccn1.[Ga+3]` [[Ga(Dp4e4mT)2]^+]: the “Therapeutic index SK-N-MC” value with SK-N-MC cells is 192. In addition, the half-maximal inhibitory concentration (IC50) in the data set on SK-N-MC cells (24 h) is 16220 ± 7 nM; with SK-N-MC cells (24 h, listed as Dp4e4mT Ga(III) complex), 16200 to 19400 nM; in the data set on SK-N-MC cells (48 h), 43 ± 6 nM; in the data set on SK-N-MC cells (72 h), 4 ± 1 nM. Also, the “t½, transmetallation with Cu(OAc)2” value in data set [1] (Cu(OAc)2 in DMSO) was 3 to 4 h. In addition, on oxy-Hb, the “oxy-Hb oxidation” value is “significantly increased oxy-Mb and oxy-Hb oxidation”.
Turning to `CN(C(=S)NN=C(c1ccccn1)c1ccccn1)C1CCCCC1` [DpC, di-2-pyridylketone 4-cyclohexyl-4-methyl-3-thiosemicarbazone, reference compound], the IC50 in the data set on SK-N-MC cells (Homo sapiens, 24 h) turned out to be 22300 ± 83 nM; with SK-N-MC cells (Homo sapiens, 48 h), 88 ± 7 nM; in the data set with SK-N-MC cells (Homo sapiens, 72 h) it was 28 ± 9 nM. Further, the “Therapeutic index SK-N-MC” value with SK-N-MC cells was determined as 149.
On to `CCN(C)C([S-])=NN=C(c1ccccn1)c1ccccn1.CCN(C)C([S-])=NN=C(c1ccccn1)c1ccccn1.[Zn+2]` [[Zn(Dp4e4mT)2]], for which the “Therapeutic index SK-N-MC” value in the data set with SK-N-MC cells was 187. For the same compound, the “Observed pseudo first order rate constant kobs, Cu(OAc)2 (only or first step)” value in data set [1] is over 0.1 s⁻¹. Also, the “oxy-Hb oxidation” value at oxy-Hb was “significantly increased oxy-Mb and oxy-Hb oxidation”.
As to `CCN(C)C([S-])=NN=C(c1ccccn1)c1ccccn1.[Cl-].[Pd+2]` [[Pd(Dp4e4mT)Cl]], in the data set on SK-N-MC cells, the “Therapeutic index SK-N-MC” value is given as 3. Moreover, the figures for the half-maximal inhibitory concentration (IC50) in the data set with SK-N-MC cells (24 h), in the data set with SK-N-MC cells (48 h) and in the data set on SK-N-MC cells (72 h) were over 25000 nM, 661 ± 62 nM and 285 ± 121 nM, respectively. In data set [1], the “Observed pseudo first order rate constant kobs, Cu(OAc)2 (only or first step)” value is on record as “No reaction”. Besides, the figures for the “oxy-Hb oxidation” value on oxy-Hb and on oxy-Hb (listed as Dp4e4mT Pd(II) complex) were “minimal impact” and “low levels of oxy-Hb oxidation”, respectively.
With `CCN(C)C([S-])=NN=C(c1ccccn1)c1ccccn1.[Cl-].[Cu+2]` [[Cu(Dp4e4mT)Cl]], in the data set on SK-N-MC cells, the “Therapeutic index SK-N-MC” value amounted to 130. Moreover, the half-inhibitory concentration (IC50) in the data set with SK-N-MC cells (24 h) was 492 ± 34 nM; in the data set on SK-N-MC cells (48 h), 31 ± 8 nM; with SK-N-MC cells (72 h), 3 ± 1 nM. Moreover, the “oxy-Hb oxidation” value on oxy-Hb was “lowest ability to oxidize oxy-Mb and oxy-Hb”.
For the compound `CCN(C)C([S-])=NN=C(c1ccccn1)c1ccccn1.CCN(C)C([S-])=NN=C(c1ccccn1)c1ccccn1.[Fe+3]` [[Fe(Dp4e4mT)2]^+], in the data set on SK-N-MC cells, the “Therapeutic index SK-N-MC” value amounted to 9. Besides, the figures for the IC50 in the data set on SK-N-MC cells (24 h), in the data set with SK-N-MC cells (48 h) and in the data set with SK-N-MC cells (72 h) were 2680 ± 71 nM, 1530 ± 37 nM and 214 ± 5 nM, respectively. Further, the “t½, reaction with Cu(OAc)2, first step” value in data set [1] (Cu(OAc)2 in DMSO, first of two consecutive first order steps) was about 6 min. The “t½, reaction with Cu(OAc)2, second step” value in data set [1] (Cu(OAc)2 in DMSO, second of two consecutive first order steps) was about 1 h.
As to `CCN(C)C([S-])=NN=C(c1ccccn1)c1ccccn1.CCN(C)C([S-])=NN=C(c1ccccn1)c1ccccn1.[Ni+2]` [[Ni(Dp4e4mT)2]], the “Therapeutic index SK-N-MC” value in the data set with SK-N-MC cells amounted to 250. Further, the half-maximal inhibitory concentration (IC50) in the data set on SK-N-MC cells (24 h) was over 25000 nM; in the data set on SK-N-MC cells (48 h), 75 ± 25 nM; in the data set with SK-N-MC cells (72 h), 18 ± 6 nM. Also, the “t½, transmetallation with Cu(OAc)2” value in data set [1] (Cu(OAc)2 in DMSO) is reported as about 2 h. The “oxy-Hb oxidation” value at oxy-Hb is recorded as “minimal impact”; at oxy-Hb (listed as Dp4e4mT Ni(II) complex), “low levels of oxy-Hb oxidation”.
Take `CCN(C)C(=S)NN=C(c1ccccn1)c1ccccn1` [Dp4e4mT, di-2-pyridylketone-4-ethyl-4-methyl-3-thiosemicarbazone]: the IC50 in the data set with SK-N-MC cells (Homo sapiens, 24 h) is over 25000 nM; in the data set with SK-N-MC cells (Homo sapiens, 48 h), 43 ± 6 nM; with SK-N-MC cells (Homo sapiens, 72 h) it was 6 ± 1 nM. Further, in the data set on SK-N-MC cells, the “Therapeutic index SK-N-MC” value came to 301.
